# Data taken from US10023582B2, “6-aryl amino pyridone formamide compound crystal and preparation method therefor” (Chia Tai Tianqing Pharmaceutical Group Co., Ltd., priority 2014, dated 2018).
# Experiment: Stability test (influencing factors: high temperature/humidity and strong light irradiation), total impurities
# Type: physicochemical
# Protocol: A suitable amount of the crystal of the compound of formula (I) prepared in Example 4 was accurately weighed, and methanol was then added thereto to dissolve the crystal. It was diluted quantitatively to obtain a solution containing about 50 μg of the compound per 1 ml of the solution. 10 μl of the solution was accurately measured and injected into the liquid chromatograph, and the chromatogram was recorded. In addition, a suitable amount of the compound of formula (I) was weighed as a control, and measured by the same method as described in the above. The purity was calculated through external standard method based on peak areas.
# Referring to the test method of influencing factors for raw materials described in the Chinese Pharmacopoeia, 2010 edition, Part II, Appendix XIX C, a high-temperature experiment (40° C.±2° C. and a relative humidity of 75%±5%) and strong light irradiation experiment (4500l×±500l×) were conducted on the crystal of the compound of formula (I) prepared in Example 4 for 10 days, respectively. Samples were taken on day 0 and day 10 to measure a total amount of impurities and determine the stability.
compound,measurement,setting,value
"Cn1c(Nc2ccc(I)cc2Cl)c(C(=O)NOCCO)c2occc2c1=O [6-(2-chloro-4-iodophenylamino)-N-(2-hydroxylethyoxyl)-5-methyl-4-oxo-4,5-dihydrofuro[3,2-c]pyridine-7-carboxamide]",Total amount of impurities (%),"At 40° C., 10 days (40° C.±2° C., relative humidity 75%±5%)",0.60%
same,Total amount of impurities (%),Day 0,0.57%
same,Total amount of impurities (%),"Irradiation for 10 days (strong light, 4500l×±500l×)",0.68%
